Measured values as given in patent US20090312280A1.

Tests used:
[1] = tested on: Colo205 human colon carcinoma xenografts; assay: in vivo chemopotentiation, Colo205 xenograft; parameters: species or system mice
Protocol: Experiments 1 to 39 were conducted in mice xenografts. Experiments 40-42 were conducted in rat xenografts. Specifically, irinotecan combination studies were conducted in HT29 and Colo205. Gemcitabine combination studies were conducted in Colo205. Docetaxel combination studies were conducted in Colo205.
Gemcitabine and irinotecan are DNA directed cytotoxics known to induce checkpoint activation and subsequent S/G2M-phase arrest. […] Docetaxel is an antimitotics where recent discoveries describe a novel function for CHK1 in the mitotic checkpoint.

PC-3 (Prostate) = assay: cell survival / MTT combination cytotoxicity; assay type: cell-based, human; details: PC-3; IC50 cytotoxic agent alone / IC50 combination; Compound 1 at 8x EC50 (360 nM)
K562 (Leukemia) = assay: cell survival / MTT combination cytotoxicity; assay type: cell-based, human; details: IC50 cytotoxic agent alone / IC50 combination, Compound 1 at 4x EC50 (180 nM)
HT29 (Colon) = assay: cell survival / MTT combination cytotoxicity; assay type: cell-based, human; details: HT29; IC50 cytotoxic agent alone / IC50 combination; Compound 1 at 8x EC50 (360 nM)
MDA-MB-231 (Breast) = assay: cell survival / MTT combination cytotoxicity; assay type: cell-based, human; details: IC50 cytotoxic agent alone / IC50 combination, Compound 1 at 8x EC50 (360 nM)
Colo205 (Colon) = assay: cell survival / MTT combination cytotoxicity; assay type: cell-based, human; details: Colo205; IC50 cytotoxic agent alone / IC50 combination; Compound 1 at 8x EC50 (360 nM)
[2] = Exp 1, gemcitabine 120 mg/kg IP Q3d×4, Compound 1 0 mg/kg
[3] = Exp 2, gemcitabine 120 mg/kg IP Q3d×4 + Compound 1 4 mg/kg IP Q3d×4 24 h after
[4] = Exp 3, gemcitabine 120 mg/kg IP Q3d×4 + Compound 1 8 mg/kg IP Q3d×4 24 h after
[5] = Exp 4, gemcitabine 120 mg/kg IP Q3d×4 + Compound 1 12 mg/kg IP Q3d×4 24 h after
[6] = Exp 5, gemcitabine 120 mg/kg IP Q3d×4 + Compound 1 20 mg/kg IP Q3d×4 24 h after
[7] = Exp 6, gemcitabine 120 mg/kg IP Q3d×4 + Compound 1 24 mg/kg IP Q3d×4 24 h after
[8] = Exp 7, gemcitabine 120 mg/kg IP Q3d×4 + Compound 1 40 mg/kg IP Q3d×4 24 h after

**Q.** For `Nc1ccn([C@@H]2O[C@H](CO)[C@@H](O)C2(F)F)c(=O)n1` [Gemcitabine], which “% TGI” value [1, 2] is on record?
**A.** Its value is 58%.

**Q.** What about the “Growth delay” value [1, 2] of the same compound?
**A.** The value was 8 days.

**Q.** What about the “% TGI” value [1, 3] of the same compound?
**A.** The value was 58%.

**Q.** What about the “Growth delay” value [1, 3] of the same compound?
**A.** Its value is 8 days.

**Q.** What about the “% TGI” value [1, 4] of the same compound?
**A.** Its value is 63%.

**Q.** What about the “% poten TGI” value [1, 4] of the same compound?
**A.** Its value is 12%.

**Q.** And the “Growth delay” value [1, 4]?
**A.** The value was 8 days.

**Q.** What about the “% TGI” value [1, 5] of the same compound?
**A.** Its value is 68%.

**Q.** And the “% poten TGI” value [1, 5]?
**A.** The value was 23%.

**Q.** What about the “Growth delay” value [1, 5] of the same compound?
**A.** Its value is 8.5 days.

**Q.** What about the “% TGI” value [1, 6] of the same compound?
**A.** The value was 76%.

**Q.** And the “% TTP” value [1, 6]?
**A.** Its value is 17%.

**Q.** And the “% poten TGI” value [1, 6]?
**A.** Its value is 43%.

**Q.** And the “Growth delay” value [1, 6]?
**A.** Its value is 12 days.

**Q.** And the “% TGI” value [1, 7]?
**A.** The value was 81%.

**Q.** And the “% TTP” value [1, 7]?
**A.** Its value is 17%.

**Q.** What about the “% poten TGI” value [1, 7] of the same compound?
**A.** Its value is 55%.

**Q.** And the “Growth delay” value [1, 7]?
**A.** Its value is 12 days.

**Q.** And the “% TGI” value [1, 8]?
**A.** Its value is 90%.

**Q.** And the “% TTP” value [1, 8]?
**A.** Its value is 50%.

**Q.** And the “% poten TGI” value [1, 8]?
**A.** Its value is 75%.

**Q.** What about the “Growth delay” value [1, 8] of the same compound?
**A.** The value was 20 days.

**Q.** What about the “PF50 (Potentiation Factor50)” value (PC-3 (Prostate)) of the same compound?
**A.** The value was 12.2.

**Q.** What about the “PF50 (Potentiation Factor50)” value (K562 (Leukemia)) of the same compound?
**A.** The value was 5.6.

**Q.** What about the “PF50 (Potentiation Factor50)” value (HT29 (Colon)) of the same compound?
**A.** Its value is 9.

**Q.** What about the “PF50 (Potentiation Factor50)” value (MDA-MB-231 (Breast)) of the same compound?
**A.** The value was 3.6.

**Q.** And the “PF50 (Potentiation Factor50)” value (Colo205 (Colon))?
**A.** The value was 11.3.
